# Legend:
# Coagulation factor X = Coagulation factor X (Homo sapiens, UniProt P00742); assay: Inhibition of Factor Xa
# Prothrombin = Prothrombin (Homo sapiens, UniProt P00734); assay: The compound was evaluated for inhibitory activity against Thrombin
# Serine protease 1 = Serine protease 1 (Homo sapiens, UniProt P07477); assay: The compound was evaluated for inhibitory activity against Trypsin
# Rattus norvegicus [1] = species on record: Rattus norvegicus; assay: Compound was tested for inhibitory dose which produced 50% inhibition of thrombus formation in a rat vena cava thrombosis model; assay type: functional
# Rattus norvegicus [2] = assay: Percent inhibition for thrombus formation after intravenous infusion at 1 mg/kg/h in a rat vena cava thrombosis model; assay type: functional
# Rattus norvegicus [3] = assay: Percent inhibition for thrombus formation after intravenous infusion at 5 mg/kg/h in a rat vena cava thrombosis model; assay type: functional
# Sequence of Serine protease 1 (P07477 whole entry): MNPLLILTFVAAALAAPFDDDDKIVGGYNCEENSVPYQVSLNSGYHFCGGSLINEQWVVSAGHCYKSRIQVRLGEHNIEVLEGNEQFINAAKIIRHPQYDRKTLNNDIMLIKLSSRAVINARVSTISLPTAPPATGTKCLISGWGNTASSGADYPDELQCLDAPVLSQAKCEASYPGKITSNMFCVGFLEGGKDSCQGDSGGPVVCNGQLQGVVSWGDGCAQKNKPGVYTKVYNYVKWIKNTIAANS
# Sequence of Coagulation factor X (P00742 41-179 limits assumed): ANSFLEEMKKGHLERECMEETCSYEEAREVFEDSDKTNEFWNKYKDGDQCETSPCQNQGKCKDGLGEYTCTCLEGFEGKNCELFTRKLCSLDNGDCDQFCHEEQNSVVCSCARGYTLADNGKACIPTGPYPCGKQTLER
# Sequence of Coagulation factor X (P00742 235-488 limits assumed): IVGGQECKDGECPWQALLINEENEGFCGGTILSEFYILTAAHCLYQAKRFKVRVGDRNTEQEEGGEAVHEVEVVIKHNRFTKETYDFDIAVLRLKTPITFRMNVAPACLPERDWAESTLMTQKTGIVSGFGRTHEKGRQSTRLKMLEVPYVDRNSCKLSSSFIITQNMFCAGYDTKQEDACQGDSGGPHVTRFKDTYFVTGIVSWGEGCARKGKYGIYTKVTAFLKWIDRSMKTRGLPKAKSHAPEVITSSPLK
Ki (Coagulation factor X) [nM],Ki (Prothrombin) [nM],Ki (Serine protease 1) [nM],SMILES,ID50 (Rattus norvegicus [1]) [mg/kg/h],inhibition in vivo at 1 mg/kg/h (Rattus norvegicus [2]) [%],inhibition in vivo at 5 mg/kg/h (Rattus norvegicus [3]) [%]
117,14100,> 1200,COC(=O)CC1(C(=O)Nc2cccc(C(=N)N)c2)CC(c2ccc(C(=N)N)cc2)=NO1 (stereo unspecified),,,
800,11800,230,COC(=O)CC1(C(=O)Nc2cccc(C(=N)N)c2)CC(c2cccc(C(=N)N)c2)=NO1 (stereo unspecified),,,
,16000,480,COC(=O)CC1(C(=O)Nc2ccc(C(=N)N)cc2)CC(c2cccc(C(=N)N)c2)=NO1 (stereo unspecified),1.6,40,80
18,3100,420,COC(=O)CNC(=O)CC1(C(=O)Nc2ccc(C(=N)N)cc2)CC(c2cccc(C(=N)N)c2)=NO1 (stereo unspecified),,,
13,,,N=C(N)c1ccc(/C=C2/CCCC/C(=C\c3ccc(C(=N)N)cc3)C2=O)cc1,,,
1800,11200,> 1200,N=C(N)c1cccc(NC(=O)CC2CC(c3cccc(C(=N)N)c3)=NO2)c1 (stereo unspecified),,,
1400,11100,,N=C(N)c1ccc(NC(=O)CC2CC(c3cccc(C(=N)N)c3)=NO2)cc1 (stereo unspecified),,,
143,> 21000,> 1200,N=C(N)c1ccc(NC(=O)C2(CC(=O)O)CC(c3cccc(C(=N)N)c3)=NO2)cc1 (stereo unspecified),,,
270,16000,700,N=C(N)c1ccc(NC(=O)C2CC(c3cccc(C(=N)N)c3)=NO2)cc1 (stereo unspecified),,,
870,2200,510,N=C(N)c1ccc(C2=NOC(CC(=O)Nc3cccc(C(=N)N)c3)C2)cc1 (stereo unspecified),,,
1700,2200,,N=C(N)c1ccc(NC(=O)CC2CC(c3ccc(C(=N)N)cc3)=NO2)cc1 (stereo unspecified),,,
